# Test results published in ChEMBL document CHEMBL1134954, “Synthesis and preliminary evaluation of trans-3,4-conformationally-restricted glutamate and pyroglutamate analogues as novel EAAT2 inhibitors” (2002).
# What was measured:
# Type in all cases: functional
# Design in all cases: scale not given: the % may be the effect or the level left
# [1] = test system: SNB-19; test: Inhibitory activity (500 uM) against Cl-dependent uptake of [3H]L-glutamate (100 uM) into SNB-19 human astrocytoma cells to determine activity at system Xc glutamate/cystine exchanger
# [2] = Potential inhibitory activity of EAAT3 by the ability (500 uM) to attenuate the Na-dependent uptake of [3H]D-aspartate (25 uM) into C6 rat glioma cells
# [3] = organism: Rattus norvegicus; test: Inhibitory activity (250 uM) against ATP dependent uptake of [3H]L-glutamate (250 uM) by isolated synaptic vesicles from rat forebrain to quantify activity at vesicular glutamate transporter
# [4] = organism: Rattus norvegicus; test: Potential inhibitory activity of EAAT2 by the ability (250 uM) to attenuate the Na-dependent uptake of [3H]D-aspartate (5 uM) into synaptosomes of rat forebrain; conditions: Brain
SMILES,Activity [1],Activity [2],Activity [3],Activity [4]
O=C(O)C1NC(=O)[C@@H]2CC=CC[C@@H]12 (stereo partly specified),89%,93%,103%,53%
N[C@@H](CCC(=O)O)C(=O)O,–,–,–,28%
NC(C(=O)O)[C@@H]1CC=CC[C@H]1C(=O)O (stereo partly specified),101%,95%,85%,38%
CC(C)[C@H]1CN[C@H](C(=O)O)[C@H]1CC(=O)O,–,–,–,22%
NC(C(=O)O)[C@@H]1C2C=CC(CC2)[C@H]1C(=O)O (stereo partly specified),88%,97%,104%,70%
NC(C(=O)O)[C@@H]1C2C=CC(C2)[C@H]1C(=O)O (stereo partly specified),88%,87%,93%,35%
CC1=C(C)C[C@@H](C(N)C(=O)O)[C@H](C(=O)O)C1 (stereo partly specified),104%,100%,99%,71%
CC1=C(C)C[C@H]2C(C(=O)O)NC(=O)[C@@H]2C1 (stereo partly specified),103%,97%,96%,77%
